From US20190054045A1, “METHODS AND COMPOSITIONS FOR TREATING SKIN CONDITIONS” (priority 2017, published 2019)

Legend:
burn scar = assay: Topical metformin to treat a burn scar on intact skin (patient case); assay type: in vivo, human; details: 250 mg/mL in petrolatum ointment, two times per day
Experimental: A patient with a burn scar from a previously treated skin cancer complaining of a raised red and itchy scar on their chest received topical metformin in petrolatum ointment at 250 mg/mL with directions to apply the lotion to the affected area (red, raised fibrotic scarred skin on chest) two times per day.

surgical defect = assay: Topical metformin to treat scarring on open skin (surgical defect, patient case); assay type: in vivo, human; details: topical ointment 250 mg/mL twice a day; within 4 weeks; in comparison to patients healing with topical petrolatum alone; observation by physician
Experimental: A patient with a previous surgical scar from removal of skin cancer with a scalpel received topical metformin ointment at 250 mg/mL with directions to apply the ointment twice a day to the surgical defect until healed (approximately 2-4 weeks).

With `CN(C)C(=N)N=C(N)N` [metformin] the “scarring of the skin” value (burn scar; after one month) was “further improved”, the “scarring of the skin (redness, itch, softness)” value (burn scar; within 14 days, observation by physician and patient) was “visibly reduced with less redness, itch, and increased softness” and the “scarring and redness of area” value (surgical defect) was “minimal scaring and redness”.
